# Measured values as given in patent US4070469A, “Compound for the treatment of bovine mastitis” (priority 1975, dated 1978).
# Entries after “also recorded” stand apart in the source; their conditions may differ. Read-outs that look alike come from different tables or passages of the source.
# Legend:
# Str.dysgal. = assay: Efficiency test in cows suffering from bovine mastitis; format: in vivo, cow; conditions: 2 doses, 24 hours interval
# LD50 mice = conditions: mouse, in vivo
# [1] = Residue of active compound in milk of the cow; format: in vivo; conditions: 500 mg in 7 ml P.E.G. base; for concentration at 24 h / concentration at 32 h: bovine, milk
# Experimental: Said four compounds were then tested for the length of time they could be detected in the milk of the cow. For this purpose 500 mg in 7 ml of a polyethylene glycol (P.E.G.) base of each compound were administered to several cows and the residue of active compound in milk were measured in mcg/ml after 24, 32 and 40 hours respectively.
# Str.uberls = assay: Efficiency test in cows suffering from bovine mastitis; format: in vivo, cow; conditions: 2 doses, 24 hours interval
# LD50 rats = conditions: rat, in vivo
# udder = assay: Number of leucocytes (somatic cells) in milk / irritation of the udder; format: in vivo, cow; conditions: for number of leucocytes (sematic cells) in milk, 40 hrs.: 40 hrs after 500 mg in 7 ml P.E.G. base; for number of leucocytes (sematic cells) in milk, 48 hrs.: 48 hrs after 500 mg in 7 ml P.E.G. base; for number of leucocytes (sematic cells) in milk, 56 hrs.: 56 hrs after 500 mg in 7 ml P.E.G. base; for number of leucocytes (sematic cells) in milk, before: before administration (baseline)
# Experimental: Thereafter 500 mg of each of said compounds in 7 ml of a P.E.G. base and also 7 ml of said base above were administered to several cows and the number of leucocytes (sematic cells) in 10^6 per ml of milk were measured before administration and 40, 48 and 56 hours thereafter. The numbers of leucocytes present indicate the degree of irritation of the udder.
# [2] = system: Strep.uberis and Stap.Aureus; assay: Activity against mastitis bacteria in presence of milk (Table I, summary in words); format: cell-based
# Text: (§1) The activity of some of said nitrofuryl quinolines derivatives against Strep.uberis and Stap.Aureus in milk has been compared with the activity of some of the compounds so far utilised in the treatment of bovine mastitis. The results are shown in Table I. (The nitrofuryl quinoline derivatives have general formula [drawing 1] the meaning of R, A, R', B, Y, X and Z being given in the Table. R1 =O whenever indicated then the N-oxide is concerned; NF stands for nitrofuryl)
# Steph.aureus = assay: Efficiency test in cows suffering from bovine mastitis; format: in vivo, cow; conditions: 2 doses, 24 hours interval
# Experimental: In has been shown that said range is effectful by an efficiency test in which various doses of 4-(5-nitrofuryl)-.quinaldinic acid N-oxide were administered to cows suffering from bovine mastitis. There were adminstered 2 doses in intervals of 24 hours. The results are shown in Table V in cured quarters/treated quarters.
# Staph.Aureus [3] = assay: Minimal bactericidal activity (MBC) in milk, field isolates; format: cell-based; conditions: in milk at pH 7.2 - 7.4; for MBC: Staphylococcus aureus
# Text: as §1
# (§2) Minimal Bactericidal/Activity (MBC) of representative Nitrofuryl
# (§3) in mcg/ml in milk at pH 7.2 - 7.4. Versus Standards (Field
# Strep.uberis = assay: as above; format: cell-based; conditions: in milk at pH 7.2 - 7.4; for MBC: Streptococcus uberis
# Text: as §1, §2, §3
# Enterococci = assay: Sensitivity of udder pathogens in milk, serial dilution; format: cell-based; conditions: 24 hours, 8 strains
# Experimental: (§4) This indication was verified by testing in vitro by the method of serial dilution the sensitivity of said compound against udder pathogens in milk in various concentrations measured in meg/ml of milk. The number of strains which were killed at each concentration were measured after 24 hours.
# C.pyogenes = assay: as above; format: cell-based; conditions: 24 hours, 3 strains
# Experimental: as §4
# Staph.Aureus [4] = assay: as above; format: cell-based; conditions: 24 hours, 86 strains
# Experimental: as §4
# Str.agalactiac = assay: as above; format: cell-based; conditions: 24 hours, 34 strains
# Experimental: as §4
# Str.uberis = assay: as above; format: cell-based; conditions: 24 hours, 32 strains
# Experimental: as §4
# Str.dysgalactiae = assay: as above; format: cell-based; conditions: 24 hours, 18 strains
# Experimental: as §4
# [5] = field isolate 2337, read-out: Minimal Bactericidal Activity (MBC), Staph.Aureus 2337
# [6] = field isolate 2372, read-out: Minimal Bactericidal Activity (MBC), Staph.Aureus 2372
# [7] = field isolate 60B, read-out: Minimal Bactericidal Activity (MBC), Strep.uberis 60B
# [8] = field isolate 127A, read-out: Minimal Bactericidal Activity (MBC), Strep.uberis 127A
# [9] = 25 meg/ml of milk (so in the source)
molecule,measurement,setting,value
"O=C(O)c1cc(-c2ccc([N+](=O)[O-])o2)c2ccccc2[n+]1[O-] [Compound 1, 2-carboxy-4-[2'-(5'-nitrofuryl)]quinoline N-oxide]","cured quarters, percent",Str.dysgal.; 50 mg,62.5%
same,cured quarters/treated quarters,Str.dysgal.; 50 mg,10/16
same,"cured quarters, percent",Str.dysgal.; 100 mg,80%
same,cured quarters/treated quarters,Str.dysgal.; 100 mg,4/5
same,"cured quarters, percent",Str.dysgal.; 250 mg,83%
same,cured quarters/treated quarters,Str.dysgal.; 250 mg,5/6
same,LD50,LD50 mice,3000 mg/kg
same,time remaining in the milk (in words),[1],remained the shortest time in the milk
same,concentration at 24 h,[1],9800 ng/mL
same,"cured quarters, percent",Str.uberls; 50 mg,61.5%
same,cured quarters/treated quarters,Str.uberls; 50 mg,8/13
same,"cured quarters, percent",Str.uberls; 100 mg,80%
same,cured quarters/treated quarters,Str.uberls; 100 mg,4/5
same,"cured quarters, percent",Str.uberls; 250 mg,80%
same,cured quarters/treated quarters,Str.uberls; 250 mg,4/5
same,"cured quarters, percent",Str.uberls; 500 mg,84%
same,cured quarters/treated quarters,Str.uberls; 500 mg,5/6
same,LD50,LD50 rats,1600 mg/kg
same,irritation of the udder (in words),udder; 500 mg in 7 ml P.E.G. base,caused the lowest irritation
same,"number of leucocytes (sematic cells) in milk, 40 hrs.",udder,0.95 10^6 per ml
same,"number of leucocytes (sematic cells) in milk, 48 hrs.",udder,1.5 10^6 per ml
same,"number of leucocytes (sematic cells) in milk, 56 hrs.",udder,0.95 10^6 per ml
same,"number of leucocytes (sematic cells) in milk, before",udder,0.28 10^6 per ml
same,activity in presence of milk (in words),[2],significant activity in milk; also recorded: the most active one
same,"cured quarters, percent",Steph.aureus; 50 mg,50%
same,cured quarters/treated quarters,Steph.aureus; 50 mg,15/30
same,"cured quarters, percent",Steph.aureus; 100 mg,75%
same,cured quarters/treated quarters,Steph.aureus; 100 mg,6/8
same,"cured quarters, percent",Steph.aureus; 250 mg,75%
same,cured quarters/treated quarters,Steph.aureus; 250 mg,6/8
same,"cured quarters, percent",Steph.aureus; 500 mg,88%
same,cured quarters/treated quarters,Steph.aureus; 500 mg,8/9
same,MBC,Staph.Aureus [3]; [5],0.5 µg/mL
same,MBC,Staph.Aureus [3]; [6],0.25 µg/mL
same,MBC,Strep.uberis; [7],0.015 µg/mL
same,MBC,Strep.uberis; [8],0.25 µg/mL
same,number of strains killed,Enterococci; 0.04 meg/ml of milk,2 strains
same,number of strains killed,Enterococci; 0.08 meg/ml of milk,3 strains
same,number of strains killed,Enterococci; 0.16 meg/ml of milk,2 strains
same,number of strains killed,Enterococci; 0.31 meg/ml of milk,1 strains
same,number of strains killed,C.pyogenes; 0.62 meg/ml of milk,1 strains
same,number of strains killed,C.pyogenes; 1.25 meg/ml of milk,2 strains
same,number of strains killed,Staph.Aureus [4]; 0.16 meg/ml of milk,4 strains
same,number of strains killed,Staph.Aureus [4]; 0.31 meg/ml of milk,14 strains
same,number of strains killed,Staph.Aureus [4]; 0.62 meg/ml of milk,51 strains
same,number of strains killed,Staph.Aureus [4]; 1.25 meg/ml of milk,15 strains
same,number of strains killed,Staph.Aureus [4]; [9],1 strains
same,number of strains killed,Str.agalactiac; 0.02 meg/ml of milk,5 strains
same,number of strains killed,Str.agalactiac; 0.04 meg/ml of milk,12 strains
same,number of strains killed,Str.agalactiac; 0.08 meg/ml of milk,13 strains
same,number of strains killed,Str.agalactiac; 0.16 meg/ml of milk,1 strains
same,number of strains killed,Str.agalactiac; 0.31 meg/ml of milk,1 strains
same,number of strains killed,Str.agalactiac; 0.62 meg/ml of milk,1 strains
same,number of strains killed,Str.agalactiac; 1.25 meg/ml of milk,1 strains
same,number of strains killed,Str.uberis; 0.16 meg/ml of milk,1 strains
same,number of strains killed,Str.uberis; 0.31 meg/ml of milk,9 strains
same,number of strains killed,Str.uberis; 0.62 meg/ml of milk,18 strains
same,number of strains killed,Str.uberis; 1.25 meg/ml of milk,2 strains
same,number of strains killed,Str.uberis; 5 meg/ml of milk,1 strains
same,number of strains killed,Str.uberis; [9],1 strains
same,number of strains killed,Str.dysgalactiae; 0.02 meg/ml of milk,1 strains
same,number of strains killed,Str.dysgalactiae; 0.04 meg/ml of milk,2 strains
same,number of strains killed,Str.dysgalactiae; 0.08 meg/ml of milk,13 strains
same,number of strains killed,Str.dysgalactiae; 0.16 meg/ml of milk,1 strains
same,number of strains killed,Str.dysgalactiae; 0.62 meg/ml of milk,1 strains
COc1ccc2c(-c3ccc([N+](=O)[O-])o3)cc[n+]([O-])c2c1 [Compound 19],concentration at 24 h,[1],26500 ng/mL
same,concentration at 32 h,[1],5000 ng/mL
same,"number of leucocytes (sematic cells) in milk, 40 hrs.",udder,5 10^6 per ml
same,"number of leucocytes (sematic cells) in milk, 48 hrs.",udder,3 10^6 per ml
same,"number of leucocytes (sematic cells) in milk, 56 hrs.",udder,2 10^6 per ml
same,"number of leucocytes (sematic cells) in milk, before",udder,0.60 10^6 per ml
same,activity in presence of milk (in words),[2],significant activity in milk
same,MBC,Staph.Aureus [3]; [5],0.5 µg/mL
same,MBC,Staph.Aureus [3]; [6],0.5 µg/mL
same,MBC,Strep.uberis; [7],0.12 µg/mL
same,MBC,Strep.uberis; [8],0.5 µg/mL
Cc1cc(-c2ccc([N+](=O)[O-])o2)c2ccc(O)cc2[n+]1[O-] [Compound 22],concentration at 24 h,[1],20000 ng/mL
same,"number of leucocytes (sematic cells) in milk, 40 hrs.",udder,5 10^6 per ml
same,"number of leucocytes (sematic cells) in milk, 48 hrs.",udder,5 10^6 per ml
same,"number of leucocytes (sematic cells) in milk, 56 hrs.",udder,3.15 10^6 per ml
same,"number of leucocytes (sematic cells) in milk, before",udder,0.28 10^6 per ml
same,activity in presence of milk (in words),[2],significant activity in milk
same,MBC,Staph.Aureus [3]; [5],1 µg/mL
same,MBC,Staph.Aureus [3]; [6],0.5 µg/mL
same,MBC,Strep.uberis; [7],0.12 µg/mL
same,MBC,Strep.uberis; [8],0.5 µg/mL
CCOc1ccc2c(-c3ccc([N+](=O)[O-])o3)cc(C(=O)O)[n+]([O-])c2c1 [Compound 26],concentration at 24 h,[1],12000 ng/mL
same,concentration at 32 h,[1],5000 ng/mL
same,"number of leucocytes (sematic cells) in milk, 40 hrs.",udder,> 7.5 10^6 per ml
same,"number of leucocytes (sematic cells) in milk, 48 hrs.",udder,3 10^6 per ml
same,"number of leucocytes (sematic cells) in milk, 56 hrs.",udder,2.65 10^6 per ml
same,"number of leucocytes (sematic cells) in milk, before",udder,0.22 10^6 per ml
same,activity in presence of milk (in words),[2],significant activity in milk
same,MBC,Staph.Aureus [3]; [5],1 µg/mL
same,MBC,Staph.Aureus [3]; [6],1 µg/mL
same,MBC,Strep.uberis; [7],0.03 µg/mL
same,MBC,Strep.uberis; [8],1 µg/mL
Necmycin [reference compound],"Minimal Bactericidal Activity (MBC), Staph.Aureus 2337",Staph.Aureus [3]; field isolate 2337,12.5 µg/mL
same,"Minimal Bactericidal Activity (MBC), Staph.Aureus 2372",Staph.Aureus [3]; field isolate 2372,12.5 µg/mL
same,"Minimal Bactericidal Activity (MBC), Strep.uberis 60B",Strep.uberis; field isolate 60B,200 µg/mL
same,"Minimal Bactericidal Activity (MBC), Strep.uberis 127A",Strep.uberis; field isolate 127A,200 µg/mL
Spiramycin [reference compound],"Minimal Bactericidal Activity (MBC), Staph.Aureus 2337",Staph.Aureus [3]; field isolate 2337,25 µg/mL
same,"Minimal Bactericidal Activity (MBC), Staph.Aureus 2372",Staph.Aureus [3]; field isolate 2372,25 µg/mL
same,"Minimal Bactericidal Activity (MBC), Strep.uberis 60B",Strep.uberis; field isolate 60B,1.56 µg/mL
same,"Minimal Bactericidal Activity (MBC), Strep.uberis 127A",Strep.uberis; field isolate 127A,12.5 µg/mL
